Patent US20240287089A1, “Preparation and Uses of 7-Azaindenoisoquinolines” (Purdue Research Foundation, priority 0001, published 2024)
Read-outs that look alike come from different tables or passages of the source.

Tests used:
L-363 = assay: MTS GI50, Myc-dependent panel; format: cell-based; conditions: L-363, 72 h, read-out: GI50
Procedure: (§1) Cytotoxicity Results in Myc-dependent Cancer Cell Lines.
(§2) MTS Cell Viability IC50 Assay. Drug solutions for MTS IC50 assays of suspension cell lines were made from DMSO stocks by serial-dilutions in 1×PBS (10010-031, Gibco). To set up treatments, drug solutions were plated in triplicates to 96-well tissue culture plates, to which cell-containing media was added to a total volume of 100 μL/well. 100%-viability controls were untreated cells. 2000 cells/well were plated for all suspension cell lines except 3000 cells/well for KMS-27 and 10000 cells/well for CHLA-32. Blanks were cell-free media. Drug treatments were maintained for 72 hr at 37° C. with 5% CO2. To quantify cells, CellTiter 96 AQueous MTS Reagent Powder (G1111, Promega) was dissolved and mixed with phenazine methosulfate (PMS, Sigma-Aldrich P9625) according to manufacturer's instructions. MTS/PMS mix ([…]) was added to treatment wells, 100%-viability control wells, and blank wells. Colors were developed at 37° C. with 5% CO2 for 4 h and absorbance at 490 nm was measured by BioTek Synergy 4 system. To obtain %-viability, A490 values were corrected by blank subtraction, normalized to 100%-viability control, and averaged. Average %-viabilities were plotted against drug dosages to obtain dose-response curves. […] For adherent cell lines, the MTS IC50 assays were conducted the same way as for suspension cell lines except for cell plating and drug treatment. For cell plating, 50 μL of 2000 cells were plated in triplicates to a 96-well tissue culture plate. Cells were allowed sufficient time to become adherent. Serial-diluted drug solutions were made the same way as in the MTS IC50 assays. To set up treatments, drug solutions were mixed with media to two-fold of the final concentrations, and 50 μL of such drug-media mix was then added to 50 μL of plated cells.

ARD = assay: MTS GI50, Myc-dependent panel; format: cell-based; conditions: ARD, 72 h; read-out: GI50
Procedure: as §1, §2

K-562 = assay: MTS GI50, Myc-dependent panel; format: cell-based; conditions: K-562, 72 h, read-out: GI50
Procedure: as §1, §2

RS4;11 = assay: MTS GI50, Myc-dependent panel; format: cell-based; conditions: RS4;11, 72 h, read-out: GI50
Procedure: as §1, §2

MDA-MB-231 = assay: MTS GI50, Myc-dependent panel; format: cell-based; conditions: MDA-MB-231, 72 h, read-out: GI50
Procedure: as §1, §2

TC-32 = assay: MTS GI50, Myc-dependent panel; format: cell-based; conditions: TC-32, 72 h, read-out: GI50
Procedure: as §1, §2

Kasumi-1 = assay: MTS GI50, Myc-dependent panel; format: cell-based; conditions: Kasumi-1, 72 h, read-out: GI50
Procedure: as §1, §2

TC-106 = assay: MTS GI50, Myc-dependent panel; format: cell-based; conditions: TC-106, 72 h; read-out: GI50
Procedure: as §1, §2

SK-N-MC = assay: MTS GI50, Myc-dependent panel; format: cell-based; conditions: 72 h, read-out: GI50
Procedure: as §1, §2

KMS-27 = assay: MTS GI50, Myc-dependent panel; format: cell-based; conditions: KMS-27, 72 h; read-out: GI50
Procedure: as §1, §2

CHLA-32 = assay: MTS GI50, Myc-dependent panel; format: cell-based; conditions: CHLA-32, 72 h; read-out: GI50
Procedure: as §1, §2

THP-1 = assay: MTS GI50, Myc-dependent panel; format: cell-based; conditions: THP-1, 72 h, read-out: GI50
Procedure: as §1, §2

MCF-7 = assay: MTS GI50, Myc-dependent panel; format: cell-based; conditions: MCF-7, 72 h, read-out: GI50
Procedure: as §1, §2

RPMI-8226 = assay: MTS GI50, Myc-dependent panel; format: cell-based; conditions: RPMI-8226, 72 h, read-out: GI50
Procedure: as §1, §2

AMO-1 = assay: MTS GI50, Myc-dependent panel; format: cell-based; conditions: AMO-1, 72 h, read-out: GI50
Procedure: as §1, §2

HL-60 = assay: MTS GI50, Myc-dependent panel; format: cell-based; conditions: HL-60, 72 h, read-out: GI50
Procedure: as §1, §2

CCRF-CRM = assay: MTS GI50, Myc-dependent panel; format: cell-based; conditions: CCRF-CRM, 72 h; read-out: GI50
Procedure: as §1, §2

MOLT-4 = assay: MTS GI50, Myc-dependent panel; format: cell-based; conditions: MOLT-4, 72 h, read-out: GI50
Procedure: as §1, §2

TC-71 = assay: MTS GI50, Myc-dependent panel; format: cell-based; conditions: TC-71, 72 h; read-out: GI50
Procedure: as §1, §2

CHLA-99 = assay: MTS GI50, Myc-dependent panel; format: cell-based; conditions: CHLA-99, 72 h; read-out: GI50
Procedure: as §1, §2

RD-ES = assay: MTS GI50, Myc-dependent panel; format: cell-based; conditions: 72 h, read-out: GI50
Procedure: as §1, §2

[1] = target: 3′-TAMRA-labeled MycG4 DNA; assay: Fluorescence binding assay; conditions: 20° C., 100 mM K+ buffer, pH 7.0; read-out: Apparent Binding Affinity Kd, app
Procedure: Binding Affinity to the Myc G-Quadruplex. Binding affinity of eight 7-aza-8,9-methylenedioxyindenoisoquinolines to MycG4 was determined using a fluorescence binding assay with a 3′-TAMRA-labeled MycG4 DNA. Monitoring TAMRA emission upon drug titration afforded binding isotherms, from which apparent binding affinities, Kd,app, were derived.
Fluorescence-Based Binding Assays. Fluorescence-based binding assays were performed on a Jasco FP-8300 spectrofluorometer equipped with a temperature controller at 20° C. in a quartz cuvette with a 10 mm path length. 3′-TAMRA-labeled MycG4 DNA (Sigma-Aldrich) was diluted to 20 nM using a 75 mM KCl/25 mM potassium phosphate buffer, pH 7.0. […] Fluorescence intensity at 580 nm, the maximum for the free DNA, was plotted against drug:DNA ratio. The apparent binding dissociation constant, Kd,app, was derived for the binding of each compound. Using OriginPro software (OriginLab Corp., United States) the change in fluorescence intensity was fitted to a one-site binding equation,
where B0 is the initial fluorescence intensity, B is maximum change in fluorescence intensity, R is DNA concentration, and L is drug:DNA ratio.

RAJI lymphoma cells = assay: MTS cell viability IC50 assay; format: cell-based; conditions: 72 h
Procedure: Cytotoxicity Results in Raji Non-Hodgkin's Lymphoma Cells. MTS experiments were then conducted to test the anti-proliferative effects of 7-aza-8,9-methylenedioxyindenoisoquinolines in Raji cells. Cells were incubated at 2-2000 nM of each drug for 72 h, and cell viabilities were quantified using the MTS assay. […] This potency trend generally correlated with the western blot results, in which G106 and G108 […] show weaker Myc downregulation.
as §2

Caco-2 cells = assay: Caco-2 permeability; format: in vitro ADME; conditions: for Papp (A→B) / Papp (B→A): Caco-2, 5 μM, 2 h
Procedure: Caco-2 Permeability Studies. The Caco-2 plate was removed from the incubator and washed twice with pre-warmed HBSS (10 mM HEPES, pH 7.4), and then incubated at 37° C. for 30 min. The stock solutions of controls compounds were diluted in DMSO to get 1 mM solutions and then diluted with HBSS (10 mM HEPES, pH 7.4) to get 5 μM working solutions. The stock solutions of the test compounds were diluted in DMSO to get 1 mM solutions and then diluted with HBSS (10 mM HEPES, pH 7.4) to get 5 μM working solutions. The final concentration of DMSO in the incubation system was 0.5%. To determine the rate of drug transport in the apical to basolateral direction, 75 μL of 5 μM working solutions of test compounds was added to the Transwell insert (apical compartment) and the wells in the receiver plate (basolateral compartment) were filled with 235 μL of HBSS (10 mM HEPES, pH 7.4). To determine the rate of drug transport in the basolateral to apical direction, 235 μL of 5 μM working solutions of test compounds were to the receiver plate wells (basolateral compartment) and then the Transwell inserts (apical compartment) were filled with 75 μL of HBSS (10 mM HEPES, pH 7.4). Time 0 samples were prepared by transferring 50 μL of 5 μM working solution to wells of the 96-deepwell plate, followed by the addition of 200 μL cold methanol containing appropriate internal standards (IS). The plates were incubated at 37° C. for 2 h. […] An aliquot of 100 μL of the supernatant was mixed with an appropriate volume of ultra-pure water before LC-MS/MS analysis. To determine the Lucifer Yellow leakage after 2 h transport period, stock solution of Lucifer yellow was prepared in ultra-pure water and diluted with HBSS (10 mM HEPES, pH 7.4) to reach the final concentration of 100 μM and then 100 μL of the Lucifer yellow solution was added to each Transwell insert (apical compartment), followed by filling the wells in the receiver plate (basolateral compartment) with 300 μL of HBSS (10 mM HEPES, pH 7.4). The plates were incubated at 37° C. for 30 minutes. Samples (80 μL) were removed directly from the apical and basolateral wells (using the basolateral access holes) and transferred to wells of new 96 wells plates.

in vivo = conditions: male, CD1, mouse, iv, 20 mg/kg
Procedure: Brain Penetration Studies. […] The concentrations were determined by LC-MS/MS with direct measurement of the plasma samples. The brain tissue was homogenized with water using a 3:1 ratio of water (mL) to brain (g) before determination of the concentrations (ng/mL) in the brain homogenates, and the homogenate values then were multiplied by a factor of 4 to obtain the brain concentrations (ng/g).

[2] = mouse, 6 h, 1 μM; for % Bound: plasma
Procedure: Analysis of Plasma Protein Binding and Stability in Human and Mouse Blood Plasma by Equilibrium Dialysis. Frozen plasma (stored at −80° C.) was thawed immediately in a 37° C. water bath. The working solutions of test compound and control compound were prepared in DMSO at 200 μM concentration, and the working solutions were spiked into plasma. The final concentration of compound was 1 μM. The final concentration of DMSO was 0.5%. Ketoconazole was used as positive control in the assay. The dialysis membranes were soaked in ultrapure water for 60 min to separate strips, then in 20% ethanol for 20 min, and then finally in dialysis buffer for 20 min. For equilibrium dialysis, each cell contained plasma sample (150 μL) and was dialyzed against an equal volume of dialysis buffer (PBS). The assay was performed in duplicate. The dialysis plate was sealed and incubated at 37° C. with 5% CO2 at 100 rpm for 6 h. At the end of incubation, samples (50 μL) from both buffer and plasma chambers were transferred to wells of a 96-well plate. Plasma (50 μL) was added to each buffer sample and an equal volume of PBS was added to the collected plasma sample. Cold acetonitrile (400 μL) containing internal standards (IS, 100 nM alprazolam, 200 nM labetalol, 200 nM imipramine and 2 μM ketoprofen) was added to precipitate protein and release compounds. Samples were vortexed for 2 min and centrifuged for 30 min at 3,220 g. An aliquot (100 μL) of the supernatant was diluted with ultra-pure H2O (100 μL), and the mixture was used for LC-MS/MS analysis. For stability determination in plasma, a spiked plasma sample (50 μL) was transferred to a new plate and incubated at 37° C., 5% CO2 for 0 and 6 h. At designated time points, PBS (50 μL) was added and mixed thoroughly, followed by the addition of room temperature quench solution [400 μL of acetonitrile containing internal standards (IS, 100 nM alprazolam, 200 nM labetalol, 200 nM imipramine and 2 μM ketoprofen)] to precipitate protein and release compounds. Samples were vortexed for 2 min and centrifuged for 30 min at 3,220 g. An aliquot (400 μL) of the supernatant was diluted by ultra-pure H2O, and the mixture was used for LC-MS/MS analysis. The concentrations of test compounds in the buffer and plasma chambers were determined from peak area ratios.

Structure (SMILES) | GI50 (L-363; Homo sapiens) [nM] | GI50 (ARD) [nM] | GI50 (K-562; Homo sapiens, K562) [nM] | GI50 (RS4;11; Homo sapiens) [nM] | GI50 (MDA-MB-231; Homo sapiens) [nM] | GI50 (TC-32; Homo sapiens) [nM] | GI50 (Kasumi-1; Homo sapiens) [nM] | GI50 (TC-106) [nM] | GI50 (SK-N-MC; Homo sapiens) [nM] | GI50 (KMS-27) [nM] | GI50 (CHLA-32) [nM] | GI50 (THP-1; Homo sapiens) [nM] | GI50 (MCF-7; Homo sapiens, MCF7) [nM] | GI50 (RPMI-8226; Homo sapiens) [nM] | GI50 (AMO-1; Homo sapiens, AMO1) [nM] | GI50 (HL-60; Homo sapiens) [nM] | GI50 (CCRF-CRM) [nM] | GI50 (TC-71) [nM] | GI50 (CHLA-99) [nM] | GI50 (RD-ES) [nM] | also measured
COc1cc2c3c(n(CCCn4ccnc4)c(=O)c2cc1OC)-c1nc2c(cc1C3=O)OCO2 [G102, 6-(3-(1H-Imidazol-1-yl)propyl)-2,3-dimethoxy-5H-[1,3]dioxolo[4″,5″:5′,6′]pyrido[3′,2′:4,5]cyclopenta[1,2-c]isoquinoline-5,12(6H)-dione] | 232 | 111 | 580 | 120 | 1050 | 127 | > 2000 | 229 | 170 | 238 | 280 | 1020 | > 2000 | 481 | 804 | > 2000 | 117 | 199 | 265 | 180 | GI50 (MOLT-4; Homo sapiens): 43 nM; Kd [1]: 147 nM; IC50 (RAJI lymphoma cells; Homo sapiens, Raji): 153 nM
CCNCCCn1c2c(c3cc(OC)c(OC)cc3c1=O)C(=O)c1cc3c(nc1-2)OCO3 [G104, 6-(3-(Ethylamino)propyl)-2,3-dimethoxy-5H-[1,3]dioxolo[4″,5″:5′,6′]pyrido [3′,2′:4,5]cyclopenta[1,2-c]isoquinoline-5,12(6H)-dione] | 96 | 55 | 158 | 38 | 476 | 53 | 266 | 157 | 137 | 141 | 33 | 358 | > 2000 | 190 | 184 | 270 | 49 | 122 | 58 | 20 | Efflux Ratio (Caco-2 cells; Caco-2): 9.51; Recovery (%)AP-BL (Caco-2 cells; Caco-2): 54.60%; Recovery (%)BL-AP (Caco-2 cells; Caco-2): 81.64%; Papp (A→B) (Caco-2 cells): 1.69 10^−6, cm/s; Papp (B→A) (Caco-2 cells): 16.04 10^−6, cm/s; Cmax (in vivo): 1610 ng/g; Vd (in vivo): 58.4 L/kg; half-life (in vivo): 7.06 h; % Recovery [2]: 80.60%; % Bound [2]: 83.44%; GI50 (MOLT-4; Homo sapiens): 13 nM; Kd [1]: 55 nM; IC50 (RAJI lymphoma cells; Homo sapiens, Raji): 131 nM
COc1cc2c3c(n(CCCNC(C)C)c(=O)c2cc1OC)-c1nc2c(cc1C3=O)OCO2 [G103, 6-(3-(Isopropylamino)propyl)-2,3-dimethoxy-5H-[1,3]dioxolo [4″,5″:5′,6′]pyrido[3′,2′:4,5]cyclopenta[1,2-c]isoquinoline-5,12(6H)-dione] | 126 | 70 | 182 | 53 | 644 | 55 | 432 | 202 | 150 | 206 | 55 | 602 | > 2000 | 234 | 317 | 328 | 57 | 153 | 89 | 31 | Recovery (%)AP-BL (Caco-2 cells; Caco-2): 36.17%; Recovery (%)BL-AP (Caco-2 cells; Caco-2): 75.54%; Papp (A→B) (Caco-2 cells): 1.55 10^−6, cm/s; Papp (B→A) (Caco-2 cells): 8.95 10^−6, cm/s; Cmax (in vivo): 3810 ng/g; % Recovery [2]: 88.02%; % Bound [2]: 84.11%; GI50 (MOLT-4; Homo sapiens): 19 nM; IC50 (RAJI lymphoma cells; Homo sapiens, Raji): 167 nM
COc1cc2c3c(n(CCCN4CCOCC4)c(=O)c2cc1OC)-c1nc2c(cc1C3=O)OCO2 [G101, 2,3-Dimethoxy-6-(3-morpholinopropyl)-5H-[1,3]dioxolo[4″,5″:5′,6′]pyrido[3′,2′:4,5]cyclopenta[1,2-c]isoquinoline-5,12(6H)-dione] | 342 | 190 | 1010 | 283 | > 2000 | 569 | > 2000 | 848 | 698 | 530 | 708 | 1320 | > 2000 | 905 | 1220 | > 2000 | 248 | 756 | 526 | 608 | GI50 (MOLT-4; Homo sapiens): 113 nM; Kd [1]: 249 nM; IC50 (RAJI lymphoma cells; Homo sapiens, Raji): 340 nM
COc1cc2c3c(n(CCCN4CCOCC4)c(=O)c2cc1OC)-c1cc2c(cc1C3=O)OCO2 [LMP400, indotecan] | 214 | 126 | 864 | 336 | 1900 | 574 | > 2000 | 605 | 1050 | 543 | 812 | 915 | > 2000 | 989 | 738 | 1390 | 316 | 1060 | 773 | 472 | GI50 (MOLT-4; Homo sapiens): 239 nM; Kd [1]: 301 nM; IC50 (RAJI lymphoma cells; Homo sapiens, Raji): 190 nM
COc1cc2c3c(n(CCCNCCO)c(=O)c2cc1OC)-c1cc2c(cc1C3=O)OCO2 [LMP744] |  | 77 |  |  |  |  |  | 277 |  | 190 | 156 |  |  |  |  |  | 57 | 244 | 77 | 24 | GI50 (L-363): 119 nM; GI50 (K-562): 219 nM; GI50 (RS4;11): 30 nM; GI50 (MDA-MB-231): 968 nM; GI50 (TC-32): 121 nM; GI50 (Kasumi-1): 721 nM; GI50 (SK-N-MC): 237 nM; GI50 (THP-1): 305 nM; GI50 (MCF-7): > 2000 nM; GI50 (RPMI-8226): 620 nM; GI50 (AMO-1): 285 nM; GI50 (HL-60): 354 nM; GI50 (MOLT-4): 4 nM; Kd [1]: 11 nM; IC50 (RAJI lymphoma cells; RAJI): 120 nM
